Among the data in patent publication US20110077248A1, “IMIDAZOPYRIDINE AND RELATED ANALOGS AS SIRTUIN MODULATORS” (Sirtris Pharmaceuticals, Inc., priority 2008, published 2011) are EC1.5 and Emax values, retold here.

The assay has as its target T1, SIRT1 (Homo sapiens, UniProt Q96EB6).
T1 construct: His-tag (N); made in house; host or cells: E. coli BL21(DE3), T7-promoter vector
T1 sequence (Q96EB6 1-747): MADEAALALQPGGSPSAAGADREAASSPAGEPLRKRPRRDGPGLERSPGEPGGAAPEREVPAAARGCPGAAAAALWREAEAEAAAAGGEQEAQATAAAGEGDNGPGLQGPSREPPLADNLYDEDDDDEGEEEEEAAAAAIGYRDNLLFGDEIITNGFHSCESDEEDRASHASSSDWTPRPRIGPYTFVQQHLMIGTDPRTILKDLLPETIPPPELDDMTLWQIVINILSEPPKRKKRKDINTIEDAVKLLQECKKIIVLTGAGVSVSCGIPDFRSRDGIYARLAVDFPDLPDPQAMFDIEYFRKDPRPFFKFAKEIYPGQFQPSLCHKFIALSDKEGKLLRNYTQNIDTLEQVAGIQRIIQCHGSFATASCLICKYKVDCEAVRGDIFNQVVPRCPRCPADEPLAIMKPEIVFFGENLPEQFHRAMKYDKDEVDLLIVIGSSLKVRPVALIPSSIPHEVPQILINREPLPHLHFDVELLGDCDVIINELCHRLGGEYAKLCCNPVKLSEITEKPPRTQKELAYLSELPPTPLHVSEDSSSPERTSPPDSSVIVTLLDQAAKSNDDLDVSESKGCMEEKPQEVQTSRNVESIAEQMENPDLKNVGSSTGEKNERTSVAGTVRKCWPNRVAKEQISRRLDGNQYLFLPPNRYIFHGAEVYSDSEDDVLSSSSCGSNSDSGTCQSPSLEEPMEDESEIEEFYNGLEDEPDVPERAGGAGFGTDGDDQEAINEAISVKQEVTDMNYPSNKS
The assay is described as follows: Mass spectrometry based assay for modulators of SIRT1 activity (deacetylation of p53-based acetylated peptide). To be noted: for EC1.5: concentration of test compound that results in 150% activation of SIRT1, 0.5 μM peptide substrate, 120 μM βNAD+, 10 nM SIRT1, 25 min, 25° C.; for Emax: percent maximum fold activation of SIRT1. Format: biochemical. From the text: A mass spectrometry based assay was used to identify modulators of SIRT1 activity. The mass spectrometry based assay utilizes a peptide having 20 amino acid residues as follows: Ac-EE-K(biotin)-GQSTSSHSK(Ac)NleSTEG-K(5TMRi)-EE-NH2 (SEQ ID NO: 1) wherein K(Ac) is an acetylated lysine residue and Nle is a norleucine. The peptide is labeled with the fluorophore 5TMR (excitation 540 nm/emission 580 nm) at the C-terminus. The sequence of the peptide substrate is based on p53 with several modifications. In addition, the methionine residue naturally present in the sequence was replaced with the norleucine because the methionine may be susceptible to oxidation during synthesis and purification.
The mass spectrometry assay is conducted as follows: 0.5 μM peptide substrate and 120 μM βNAD+ is incubated with 10 nM SIRT1 for 25 minutes at 25° C. in a reaction buffer (50 mM Tris-acetate pH 8, 137 mM NaCl, 2.7 mM KCl, 1 mM MgCl2, 5 mM DTT, 0.05% BSA). Test compounds may be added to the reaction as described above. The SirT1 gene is cloned into a T7-promoter containing vector and transformed into BL21(DE3). After the 25 minute incubation with SIRT1, 10 μL of 10% formic acid is added to stop the reaction. Reactions are sealed and frozen for later mass spec analysis. Determination of the mass of the substrate peptide allows for precise determination of the degree of acetylation (i.e. starting material) as compared to deacetylated peptide (product).
A control for inhibition of sirtuin activity is conducted by adding 1 μL of 500 mM nicotinamide as a negative control at the start of the reaction (e.g., permits determination of maximum sirtuin inhibition). A control for activation of sirtuin activity is conducted using 10 nM of sirtuin protein, with 1 μL of DMSO in place of compound, to determinine the amount of deacetylation of the substrate at a given timepoint within the linear range of the assay. This timepoint is the same as that used for test compounds and, within the linear range, the endpoint represents a change in velocity.
For the above assay, SIRT1 protein was expressed and purified as follows. The SirT1 gene was cloned into a T7-promoter containing vector and transformed into BL21(DE3). The protein was expressed by induction with 1 mM IPTG as an N-terminal His-tag fusion protein at 18° C. overnight and harvested at 30,000×g. Cells were lysed with lysozyme in lysis buffer (50 mM Tris-HCl, 2 mM Tris[2-carboxyethyl]phosphine (TCEP), 10 μM ZnCl2, 200 mM NaCl) and further treated with sonication for 10 min for complete lysis. The protein was purified over a Ni-NTA column (Amersham) and fractions containing pure protein were pooled, concentrated and run over a sizing column (Sephadex S200 26/60 global). The peak containing soluble protein was collected and run on an Ion-exchange column (MonoQ). Gradient elution (200 mM-500 mM NaCl) yielded pure protein. This protein was concentrated and dialyzed against dialysis buffer (20 mM Tris-HCl, 2 mM TCEP) overnight. The protein was aliquoted and frozen at −80° C. until further use.
Sirtuin modulating compounds that activated SIRT1 were identified using the assay described above and are shown below in Table 1. The EC1.5 values represent the concentration of test compounds that result in 150% activation of SIRT1. The EC1.5 values for the activating compounds are represented by A (EC1.5<1.0 uM), B (EC1.5 1-25 uM), C (EC1.5>25 uM). The percent maximum fold activation is represented by A (Fold activation >200%) or B (Fold Activation <200%). “NT” indicates the compound was not tested in a particular assay.

For `O=C(Nc1nccs1)c1cccn2cc(-c3cccc(F)c3)nc12` [Compound 154], the EC1.5 result is recorded as “C (EC1.5>25 uM)” and the Emax was less than 200%.
As to `O=C(Nc1ccccn1)c1cccn2nc(-c3ccccc3OC(F)(F)F)nc12` [Compound 228], the EC1.5 entry was “B (EC1.5 1-25 uM)” and the maximum response (Emax) is greater than 200%.
On the same counts, the results for `Cc1ncccc1-c1nc2c(C(=O)Nc3cccc(CN4CCOCC4)n3)cccn2n1` [Compound 242] are “B (EC1.5 1-25 uM)” and greater than 200%.
For `O=C(Nc1nccs1)c1cccn2cc(-c3ccccc3F)nc12` [Compound 152], in that order: “C (EC1.5>25 uM)” and less than 200%.
On the same counts, the results for `O=C(Nc1nccs1)c1cccn2nc(-c3ccccc3OC(F)F)nc12` [Compound 225] are “B (EC1.5 1-25 uM)” and greater than 200%.
As for `O=C(Nc1cccc(CN2CCOCC2)n1)c1nccn2cc(-c3cccc(OC(F)(F)F)c3)nc12` [Compound 158], the EC1.5 result is “A (EC1.5<1.0 uM)” and the maximal effect (Emax) was greater than 200%.
For `O=C(Nc1cnccn1)c1cccn2cc(-c3ccccc3)nc12` [Compound 109], in that order: “B (EC1.5 1-25 uM)” and less than 200%.
For `O=C(Nc1nccs1)c1cccn2cc(-c3cccc(OC(F)(F)F)c3)nc12` [Compound 115, N-(thiazol-2-yl)-2-(3-(trifluoromethoxy)phenyl)imidazo[1,2-a]pyridine-8-carboxamide], in that order: “B (EC1.5 1-25 uM)” and less than 200%.
For `O=C(Nc1cccn2cc(-c3cccc(OC(F)(F)F)c3)nc12)c1cscn1` [Compound 104], in that order: “C (EC1.5>25 uM)” and less than 200%.
Consider `Cc1nc(C)c(-c2nc3c(C(=O)Nc4ccccn4)cccn3n2)s1` [Compound 230], for which the EC1.5 result is reported as “C (EC1.5>25 uM)” and the Emax was less than 200%.
On the same counts, the results for `O=C(Nc1cccc(CN2CCOCC2)n1)c1cccn2nc(-c3cccc(C(F)(F)F)c3)nc12` [Compound 178] are “B (EC1.5 1-25 uM)” and greater than 200%.
With `O=C(Nc1cccc(CN2CCOCC2)n1)c1cccn2cc(-c3cccc(F)c3F)nc12` [Compound 232], the EC1.5 result was “B (EC1.5 1-25 uM)” and the Emax was less than 200%.
On the same counts, the results for `O=C(Nc1nccs1)c1nccn2cc(-c3cccc(OC(F)(F)F)c3)nc12` [Compound 142] are “C (EC1.5>25 uM)” and less than 200%.
Consider `Cc1cnc(NC(=O)c2nccn3cc(-c4ccccc4OC(F)(F)F)nc23)s1` [Compound 187], for which the EC1.5 result is “B (EC1.5 1-25 uM)” and the maximal effect (Emax) was greater than 200%.
On the same counts, the results for `Cc1cc(-c2nc3c(C(=O)Nc4cccc(CN5CCOCC5)n4)cccn3n2)ccn1` [Compound 217] are “B (EC1.5 1-25 uM)” and greater than 200%.
For `O=C(Nc1cccc(CN2CCOCC2)n1)c1cccn2cc(-c3ccc(F)c(F)c3)nc12` [Compound 195], in that order: “B (EC1.5 1-25 uM)” and greater than 200%.
For `O=C(Nc1ccccn1)c1cccn2nc(-c3cc(N4CCOCC4)ccc3C(F)(F)F)nc12` [Compound 222], in that order: “A (EC1.5<1.0 uM)” and greater than 200%.
Consider `O=C(Nc1ccccn1)c1cccn2cc(-c3ccccc3C(F)(F)F)nc12` [Compound 149], for which the EC1.5 result is given as “B (EC1.5 1-25 uM)” and the Emax was greater than 200%.
In the case of `O=C(Nc1ccccn1)c1nccn2cc(-c3ccccc3OC(F)(F)F)nc12` [Compound 186], the EC1.5 entry is “B (EC1.5 1-25 uM)” and the maximal response (Emax) is greater than 200%.
On the same counts, the results for `O=C(Nc1cnccn1)c1cccn2cc(-c3cccc(C(F)(F)F)c3)nc12` [Compound 118] are “B (EC1.5 1-25 uM)” and less than 200%.
On the same counts, the results for `O=C(Nc1nccs1)c1cccn2nc(-c3ccccc3OC(F)(F)F)nc12` [Compound 227] are “B (EC1.5 1-25 uM)” and greater than 200%.
Regarding `O=C(Nc1ncc(CN2CCCC2)s1)c1cccn2cc(-c3ccc(F)cc3C(F)(F)F)nc12` [Compound 146], the EC1.5 result is “B (EC1.5 1-25 uM)” and the Emax was greater than 200%.
On the same counts, the results for `O=C(Nc1ccccn1)c1cccn2nc(-c3cccc(N4CCOCC4)c3)nc12` [Compound 182] are “B (EC1.5 1-25 uM)” and less than 200%.
For `O=C(Nc1ccccn1)c1cccn2cc(-c3ccc(N4CCCC4)cc3)nc12` [Compound 167], in that order: “C (EC1.5>25 uM)” and less than 200%.
For `O=C(Nc1cccn2cc(-c3cccc(C(F)(F)F)c3)nc12)c1cnccn1` [Compound 111], in that order: “B (EC1.5 1-25 uM)” and less than 200%.
As to `Cc1cnc(NC(=O)c2nccn3cc(-c4ccc(F)cc4C(F)(F)F)nc23)s1` [Compound 190], the EC1.5 result is “A (EC1.5<1.0 uM)” and the Emax is greater than 200%.
For `O=C(Nc1ccccn1)c1cccn2nc(-c3ccc(OCCN4CCOCC4)cc3C(F)F)nc12` [Compound 248], in that order: “B (EC1.5 1-25 uM)” and greater than 200%.
For the compound `O=C(Nc1ccc(CCN2CCCC2)cc1)c1cccn2cc(-c3ccc(F)cc3C(F)(F)F)nc12` [Compound 218], the EC1.5 result is listed as “C (EC1.5>25 uM)” and the maximal effect (Emax) was less than 200%.
On the same counts, the results for `O=C(Nc1ccncn1)c1nccn2cc(-c3ccccc3OC(F)(F)F)nc12` [Compound 244] are “B (EC1.5 1-25 uM)” and greater than 200%.
For `O=C(Nc1ccccn1)c1cccn2cc(-c3cccc(C(F)F)c3)nc12` [Compound 207], in that order: “A (EC1.5<1.0 uM)” and less than 200%.
For `O=C(Nc1cccnn1)c1nccn2cc(-c3ccccc3OC(F)(F)F)nc12` [Compound 243], in that order: “B (EC1.5 1-25 uM)” and greater than 200%.
On to `O=C(Nc1cccn2cc(-c3ccccc3)nc12)c1cccc(N2CCCC2)c1` [Compound 131], for which the EC1.5 entry is “C (EC1.5>25 uM)” and the Emax was less than 200%.
For `O=C(Nc1ccc(CN2CCOCC2)cc1)c1cccn2cc(-c3ccc(F)cc3C(F)(F)F)nc12` [Compound 147], in that order: “B (EC1.5 1-25 uM)” and greater than 200%.
For `O=C(Nc1nc(CN2CCOCC2)cs1)c1cccn2cc(-c3cc(F)cc(F)c3)nc12` [Compound 192], in that order: “A (EC1.5<1.0 uM)” and greater than 200%.

One may read the Emax as the greatest response seen or fitted, relative to the assay's reference.
